The structures appear in SMILES notation.

The Ki is a measure of affinity in units of concentration, obtained from inhibition or displacement. Read a high Ki as lower affinity.

This test addresses Gelatinase. Nature of the test: particle concentration fluorescence assay of MMP inhibition in vitro. It is filed as biochemical. Particulars: fluorescein/biotin-labelled substrate, avidin-coated particles, room temperature, pH 7.5. As for the experimental part: Inhibitory activity is evaluated in one or more of the MMP enzymes (stromelysin, gelatinase, and collagenase) in vitro using particle concentration fluorescence assay. An inhibitor binds to MMP enzymes which prevents the degradation of a substrate by stromelysin, gelatinase, or collagenase. The substrate has attached to it a fluorescein and a biotin moiety. The intact substrate then binds to an avidin-coated particle via the biotin moiety. Once the particle is washed and dried, a fluorescent signal is generated since the fluorescent group is attached to the particle. Without an inhibitor present, the substrate is degraded by MMP enzymes and the fluorescein group is removed, therefore, no fluorescent signal can be detected. Testing compounds are dissolved in DMSO to the desired concentration, then the solutions are diluted to 1:5 with MMP buffer (50 mM Tris-HCl, pH 7.5; 150 mM NaCl; 0.02% NaN3). Serial two-fold dilutions of each compound are prepared. A concentrated, activated enzyme solution is transferred into each plate of the testing compounds, and the mixture is incubated at room temperature for 15 minutes. Thawed MMP substrate is then added into all plates, and the plates are incubated in the dark for 1-3 hours at room temperature. At this point, the substrate mixture is mixed with 0.1% avidin-coated polystyrene particles. After 15 minutes, the fluorescence values are measured following filtration and washing of the beads. Ki values are then calculated.
Consider `CCCCCCCCS(=O)(=O)N[C@H](Cc1c[nH]c2ccccc12)C(=O)NO` [Example 6, N-hydroxy-2(R)-[(n-octylsulfonyl)amino]-3-(3-indolyl)-propanamide], for which the Ki was 12.1 nM.

`CCC(C)(C)C(NS(=O)(=O)c1ccc(OC)cc1)C(=O)NO` (stereo not drawn) [Example 10, N-Hydroxy-2-[(4-methoxybenzenesulfonyl)-amino]-3,3-dimethyl pentanamide] registered a Ki of 9.8 nM.

`COc1ccc(S(=O)(=O)N[C@H](Cc2ccccc2)C(=O)NO)cc1` [Example 4, N-hydroxy-2(R)-[(4-methoxybenzenesulfonyl)-amino]-3-phenyl-propanamide] had a Ki of 7.23 nM.

As for `COc1ccc(S(=O)(=O)N[C@H](Cc2c[nH]c3ccccc23)C(=O)NO)cc1` [Example 1, N-hydroxy-2(R)-[(4-methoxybenzenesulfonyl)amino]-3-(3-indolyl)-propanamide], affinity was put at a Ki of 7.81 nM.

`CC(C)[C@@H](NS(=O)(=O)c1ccccc1)C(=O)NO` [Example 9, N-hydroxy-2(R)-[(benzenesulfonyl)amino]-3-methyl butanamide]: the Ki was found to be 82 nM.

The compound `COc1ccc(S(=O)(=O)N[C@@H](C(=O)NO)c2ccccc2)cc1` [Example 7, N-hydroxy-2(R)-[(4-methoxybenzenesulfonyl)amino]-2-phenyl acetamide] yielded a Ki of 3.3 nM.

`O=C(NO)[C@@H](Cc1c[nH]c2ccccc12)NS(=O)(=O)c1ccc(F)cc1` [Example 3, N-hydroxy-2(R)-[(4-fluorobenzenesulfonyl)-amino]-3-(3-indolyl)-propanamide] registered a Ki of 79 nM. Compared with the last compound, the Ki is about 24-fold higher.

The compound `O=C(NO)[C@@H](Cc1c[nH]c2ccccc12)NS(=O)(=O)c1ccccc1` [Example 2, N-hydroxy-2(R)-[(benzenesulfonyl)amino]-3-(3-indolyl)-propanamide] had a Ki of 14.2 nM.

As to `O=C(NO)[C@@H](Cc1c[nH]c2ccccc12)NS(=O)(=O)c1ccc(Br)cc1` [Example 5, N-hydroxy-2(R)-[(4-bromobenzenesulfonyl)amino]-3-(3-indolyl)-propanamide], the affinity, expressed as Ki, was 2.6 nM. This Ki is about 5.5-fold lower than that of the compound before.

Values taken from patent US5804593A, “α-Amino sulfonyl hydroxamic acids as matrix metalloproteinase inhibitors” (Pharmacia & Upjohn Company, priority 1997, dated 1998).
